ChEMBL document CHEMBL5465560, “Selectivity Literature for EUbOPEN Chemogenomic Library” (2024)
Each block holds one molecule with its values, some of them ahead of it.

What was measured:
[1] = target: Fibroblast growth factor receptor 1 (Homo sapiens, UniProt P11362); experiment: Selectivity interaction (Kinase panel (DSF assay)) EUB0001559a FGFR1
[2] = target: T1, Aurora kinase C (Homo sapiens) (UniProt Q9UQB9); experiment: Selectivity interaction (KinomeScan (DiscoverX)) EUB0000655a AURKC; details: at 10 µM
T1 sequence (whole entry): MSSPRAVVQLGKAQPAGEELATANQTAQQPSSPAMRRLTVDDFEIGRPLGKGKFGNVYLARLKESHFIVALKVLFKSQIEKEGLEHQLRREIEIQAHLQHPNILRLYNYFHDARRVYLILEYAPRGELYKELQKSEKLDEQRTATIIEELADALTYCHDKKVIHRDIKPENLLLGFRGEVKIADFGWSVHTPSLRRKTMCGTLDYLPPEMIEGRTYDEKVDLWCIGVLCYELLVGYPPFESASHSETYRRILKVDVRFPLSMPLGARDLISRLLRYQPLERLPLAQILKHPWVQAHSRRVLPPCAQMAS

[3] = target: Calcium/calmodulin-dependent protein kinase type II subunit alpha (Homo sapiens, UniProt Q9UQM7); experiment: Selectivity interaction (KinomeScan (DiscoverX)) EUB0000655a CAMK2A; details: at 10 µM
[4] = target: Insulin receptor (Homo sapiens, UniProt P06213); experiment: Selectivity interaction (Millipore kinase profiler) EUB0000124b INSR; details: at 10 µM
[5] = target: Serine/threonine-protein kinase N1 (Homo sapiens, UniProt Q16512); experiment: Selectivity interaction (ActivX KiNativ screen (ex vivo kinase selectivity in human PBMCs)) EUB0001619a PKN1; assay type: cell-based; details: PBMC, at 1 µM
[6] = target: Activated CDC42 kinase 1 (Homo sapiens, UniProt Q07912); details: at 10 µM
[7] = target: Serine/threonine-protein kinase MARK2 (Homo sapiens) (UniProt Q7KZI7); experiment: Selectivity interaction (ActivX KiNativ screen (kinase selectivity in THP-1 cell lysates)) EUB0000639a MARK2; assay type: subcellular; details: lysate, at 0.01 µM
[8] = target: Mitogen-activated protein kinase 14 (Homo sapiens, UniProt Q16539); experiment: Selectivity interaction (KinomeScan (DiscoverX)) EUB0000229b MAPK14; details: at 10 µM
[9] = target: T2, Serine/threonine-protein kinase D1 (Homo sapiens) (UniProt Q15139); experiment: Selectivity interaction (ProQinase) EUB0000171b PRKD1
T2 sequence (whole entry): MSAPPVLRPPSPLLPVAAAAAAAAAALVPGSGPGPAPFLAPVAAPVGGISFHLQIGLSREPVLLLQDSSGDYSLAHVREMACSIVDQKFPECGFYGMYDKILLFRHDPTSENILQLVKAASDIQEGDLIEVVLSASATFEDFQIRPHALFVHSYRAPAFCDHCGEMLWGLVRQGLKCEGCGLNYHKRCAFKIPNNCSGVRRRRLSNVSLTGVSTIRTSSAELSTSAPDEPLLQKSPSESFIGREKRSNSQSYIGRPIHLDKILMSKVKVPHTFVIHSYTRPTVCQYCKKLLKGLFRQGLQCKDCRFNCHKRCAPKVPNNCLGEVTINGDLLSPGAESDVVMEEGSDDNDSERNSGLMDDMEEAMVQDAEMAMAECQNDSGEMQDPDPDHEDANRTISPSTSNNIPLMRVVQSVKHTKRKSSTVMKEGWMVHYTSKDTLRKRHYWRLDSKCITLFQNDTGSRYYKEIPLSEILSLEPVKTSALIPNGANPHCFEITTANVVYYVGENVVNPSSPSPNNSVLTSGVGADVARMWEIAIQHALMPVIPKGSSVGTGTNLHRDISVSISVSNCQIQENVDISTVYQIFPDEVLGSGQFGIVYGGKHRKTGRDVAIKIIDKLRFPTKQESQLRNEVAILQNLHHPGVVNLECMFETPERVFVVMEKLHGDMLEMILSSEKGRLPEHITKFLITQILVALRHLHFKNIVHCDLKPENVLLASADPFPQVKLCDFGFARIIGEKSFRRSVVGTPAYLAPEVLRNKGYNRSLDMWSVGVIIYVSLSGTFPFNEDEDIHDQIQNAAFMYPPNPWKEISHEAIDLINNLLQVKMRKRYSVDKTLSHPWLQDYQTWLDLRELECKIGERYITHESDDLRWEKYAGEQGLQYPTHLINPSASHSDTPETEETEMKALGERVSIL

[10] = target: T3, Tyrosine-protein kinase JAK3 (Homo sapiens, UniProt P52333); experiment: Selectivity interaction (Kinase panel (33PanQinase(R) Activity Assay)) EUB0000877a JAK3
T3 sequence (P52333 whole entry): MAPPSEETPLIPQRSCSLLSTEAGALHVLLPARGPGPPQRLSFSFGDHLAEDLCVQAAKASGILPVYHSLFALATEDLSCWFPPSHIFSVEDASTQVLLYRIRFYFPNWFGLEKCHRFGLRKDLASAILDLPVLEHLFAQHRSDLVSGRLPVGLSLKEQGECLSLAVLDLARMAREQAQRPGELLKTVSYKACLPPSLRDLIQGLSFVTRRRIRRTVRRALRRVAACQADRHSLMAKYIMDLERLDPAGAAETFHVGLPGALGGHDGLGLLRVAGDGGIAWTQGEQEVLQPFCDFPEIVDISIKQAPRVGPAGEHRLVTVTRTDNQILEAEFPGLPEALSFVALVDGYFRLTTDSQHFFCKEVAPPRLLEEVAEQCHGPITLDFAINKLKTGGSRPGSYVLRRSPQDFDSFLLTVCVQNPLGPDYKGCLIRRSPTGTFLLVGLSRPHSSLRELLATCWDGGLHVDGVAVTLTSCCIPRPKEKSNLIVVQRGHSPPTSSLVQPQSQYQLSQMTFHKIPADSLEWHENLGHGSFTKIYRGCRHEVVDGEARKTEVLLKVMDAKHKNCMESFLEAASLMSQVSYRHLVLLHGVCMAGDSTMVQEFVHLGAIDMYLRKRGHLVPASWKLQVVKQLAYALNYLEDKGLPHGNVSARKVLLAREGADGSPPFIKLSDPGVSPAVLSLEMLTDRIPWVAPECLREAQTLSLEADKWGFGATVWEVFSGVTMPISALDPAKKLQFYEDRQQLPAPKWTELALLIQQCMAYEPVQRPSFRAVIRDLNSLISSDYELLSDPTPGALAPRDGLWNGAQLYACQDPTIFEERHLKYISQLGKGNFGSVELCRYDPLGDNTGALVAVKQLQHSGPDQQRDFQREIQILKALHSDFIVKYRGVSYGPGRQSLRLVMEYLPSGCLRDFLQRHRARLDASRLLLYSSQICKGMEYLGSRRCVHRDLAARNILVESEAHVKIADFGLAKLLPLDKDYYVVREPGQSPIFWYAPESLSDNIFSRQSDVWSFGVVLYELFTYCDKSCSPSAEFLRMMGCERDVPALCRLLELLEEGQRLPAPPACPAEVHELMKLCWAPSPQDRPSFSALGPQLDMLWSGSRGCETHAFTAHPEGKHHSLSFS

[11] = target: Serine/threonine-protein kinase/endoribonuclease IRE1 (Homo sapiens) (UniProt O75460); experiment: Selectivity interaction (LanthaScreen Eu Kinase Binding Assay) EUB0001632a ERN1; details: at 10 µM
Chain of Serine/threonine-protein kinase/endoribonuclease IRE1 (Homo sapiens) (O75460 19-977 limits assumed): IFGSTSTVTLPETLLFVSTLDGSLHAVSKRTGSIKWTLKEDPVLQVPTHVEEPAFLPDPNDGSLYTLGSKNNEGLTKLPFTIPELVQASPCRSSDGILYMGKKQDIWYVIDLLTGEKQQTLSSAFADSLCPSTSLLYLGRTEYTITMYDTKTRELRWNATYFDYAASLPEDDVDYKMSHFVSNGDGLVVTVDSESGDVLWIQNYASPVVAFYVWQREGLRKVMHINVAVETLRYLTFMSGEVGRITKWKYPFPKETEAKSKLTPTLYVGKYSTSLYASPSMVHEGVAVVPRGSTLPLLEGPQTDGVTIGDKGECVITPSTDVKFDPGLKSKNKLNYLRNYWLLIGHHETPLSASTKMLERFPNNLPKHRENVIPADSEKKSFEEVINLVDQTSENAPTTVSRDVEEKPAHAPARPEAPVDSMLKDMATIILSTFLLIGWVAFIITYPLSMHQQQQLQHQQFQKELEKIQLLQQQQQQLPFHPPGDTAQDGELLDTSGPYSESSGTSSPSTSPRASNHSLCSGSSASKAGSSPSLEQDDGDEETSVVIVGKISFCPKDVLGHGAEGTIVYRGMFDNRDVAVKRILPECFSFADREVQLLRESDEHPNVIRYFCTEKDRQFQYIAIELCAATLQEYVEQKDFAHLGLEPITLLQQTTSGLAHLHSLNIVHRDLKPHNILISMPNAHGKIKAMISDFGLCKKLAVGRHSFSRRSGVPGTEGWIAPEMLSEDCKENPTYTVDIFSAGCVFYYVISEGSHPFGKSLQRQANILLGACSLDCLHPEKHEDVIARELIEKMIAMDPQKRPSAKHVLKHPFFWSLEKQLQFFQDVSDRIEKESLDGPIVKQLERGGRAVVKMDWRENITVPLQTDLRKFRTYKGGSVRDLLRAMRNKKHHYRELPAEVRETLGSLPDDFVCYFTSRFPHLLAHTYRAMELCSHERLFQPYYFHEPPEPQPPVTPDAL

Chain of Serine/threonine-protein kinase N1 (Q16512 2-942 limits assumed): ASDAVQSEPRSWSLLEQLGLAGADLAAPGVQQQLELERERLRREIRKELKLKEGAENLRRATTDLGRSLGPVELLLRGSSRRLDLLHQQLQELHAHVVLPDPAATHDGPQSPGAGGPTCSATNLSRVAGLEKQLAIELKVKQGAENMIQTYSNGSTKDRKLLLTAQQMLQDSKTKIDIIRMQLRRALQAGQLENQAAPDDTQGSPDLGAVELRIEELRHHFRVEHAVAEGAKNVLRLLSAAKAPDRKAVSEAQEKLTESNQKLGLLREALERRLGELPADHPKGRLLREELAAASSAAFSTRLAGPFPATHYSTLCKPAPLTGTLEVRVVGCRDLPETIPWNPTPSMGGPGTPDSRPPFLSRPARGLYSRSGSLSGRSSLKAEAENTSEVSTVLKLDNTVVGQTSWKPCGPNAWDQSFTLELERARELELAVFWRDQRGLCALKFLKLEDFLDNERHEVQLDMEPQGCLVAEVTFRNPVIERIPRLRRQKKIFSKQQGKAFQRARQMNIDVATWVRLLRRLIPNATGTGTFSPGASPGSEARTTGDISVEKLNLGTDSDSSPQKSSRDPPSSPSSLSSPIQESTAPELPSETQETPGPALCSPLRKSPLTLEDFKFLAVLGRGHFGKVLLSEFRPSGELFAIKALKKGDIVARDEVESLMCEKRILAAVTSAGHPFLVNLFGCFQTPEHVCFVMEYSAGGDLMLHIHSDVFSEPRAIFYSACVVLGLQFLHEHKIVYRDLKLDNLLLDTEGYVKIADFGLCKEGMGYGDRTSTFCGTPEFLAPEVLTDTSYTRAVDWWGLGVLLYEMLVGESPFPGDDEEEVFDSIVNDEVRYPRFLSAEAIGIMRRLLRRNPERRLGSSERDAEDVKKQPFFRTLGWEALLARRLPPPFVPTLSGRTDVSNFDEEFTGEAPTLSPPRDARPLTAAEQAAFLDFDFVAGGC
Chain of Serine/threonine-protein kinase MARK2 (Homo sapiens) (Q7KZI7 whole entry): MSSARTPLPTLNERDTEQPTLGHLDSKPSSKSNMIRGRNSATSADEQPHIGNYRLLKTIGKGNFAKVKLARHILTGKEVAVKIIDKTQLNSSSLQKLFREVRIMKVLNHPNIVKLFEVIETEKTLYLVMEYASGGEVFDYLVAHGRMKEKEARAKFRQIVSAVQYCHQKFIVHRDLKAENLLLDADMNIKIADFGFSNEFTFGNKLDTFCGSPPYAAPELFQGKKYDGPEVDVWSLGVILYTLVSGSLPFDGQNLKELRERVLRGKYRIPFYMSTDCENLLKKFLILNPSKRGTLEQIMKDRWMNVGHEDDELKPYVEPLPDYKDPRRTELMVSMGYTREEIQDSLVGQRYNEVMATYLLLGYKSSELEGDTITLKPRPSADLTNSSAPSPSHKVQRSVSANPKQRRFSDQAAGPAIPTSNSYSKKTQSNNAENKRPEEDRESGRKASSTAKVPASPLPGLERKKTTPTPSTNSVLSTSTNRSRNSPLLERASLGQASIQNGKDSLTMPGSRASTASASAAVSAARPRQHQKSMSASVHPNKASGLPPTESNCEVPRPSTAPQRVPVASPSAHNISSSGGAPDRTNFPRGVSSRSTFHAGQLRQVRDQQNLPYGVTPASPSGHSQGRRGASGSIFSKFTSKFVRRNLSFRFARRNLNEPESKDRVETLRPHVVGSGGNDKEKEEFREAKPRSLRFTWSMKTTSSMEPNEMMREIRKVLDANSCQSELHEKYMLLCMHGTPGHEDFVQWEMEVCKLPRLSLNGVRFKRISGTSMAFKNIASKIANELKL
Chain of Calcium/calmodulin-dependent protein kinase type II subunit alpha (Q9UQM7 whole entry): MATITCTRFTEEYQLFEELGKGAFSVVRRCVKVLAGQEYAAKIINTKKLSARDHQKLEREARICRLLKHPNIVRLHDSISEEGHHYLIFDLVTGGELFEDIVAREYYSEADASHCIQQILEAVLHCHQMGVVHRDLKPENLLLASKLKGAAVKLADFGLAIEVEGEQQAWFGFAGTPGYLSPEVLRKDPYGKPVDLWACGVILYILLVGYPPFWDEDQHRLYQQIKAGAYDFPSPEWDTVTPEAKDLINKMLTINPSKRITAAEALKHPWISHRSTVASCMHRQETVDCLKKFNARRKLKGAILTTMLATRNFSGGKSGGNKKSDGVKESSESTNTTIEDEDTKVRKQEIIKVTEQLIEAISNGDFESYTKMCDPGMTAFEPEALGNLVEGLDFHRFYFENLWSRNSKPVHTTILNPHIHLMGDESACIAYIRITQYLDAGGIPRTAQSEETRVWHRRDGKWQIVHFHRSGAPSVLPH
Chain of Mitogen-activated protein kinase 14 (Q16539 whole entry): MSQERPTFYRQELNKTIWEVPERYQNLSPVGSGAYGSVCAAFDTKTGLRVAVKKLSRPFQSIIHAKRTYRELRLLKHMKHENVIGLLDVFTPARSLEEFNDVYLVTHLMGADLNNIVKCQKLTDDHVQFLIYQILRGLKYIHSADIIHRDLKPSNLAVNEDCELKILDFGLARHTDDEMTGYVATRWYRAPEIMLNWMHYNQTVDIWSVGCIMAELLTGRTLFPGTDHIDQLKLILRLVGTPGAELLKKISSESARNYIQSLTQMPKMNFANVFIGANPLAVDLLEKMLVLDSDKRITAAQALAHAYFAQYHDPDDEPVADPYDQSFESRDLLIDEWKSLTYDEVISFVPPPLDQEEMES
Chain of Insulin receptor (P06213 28-758 limits assumed): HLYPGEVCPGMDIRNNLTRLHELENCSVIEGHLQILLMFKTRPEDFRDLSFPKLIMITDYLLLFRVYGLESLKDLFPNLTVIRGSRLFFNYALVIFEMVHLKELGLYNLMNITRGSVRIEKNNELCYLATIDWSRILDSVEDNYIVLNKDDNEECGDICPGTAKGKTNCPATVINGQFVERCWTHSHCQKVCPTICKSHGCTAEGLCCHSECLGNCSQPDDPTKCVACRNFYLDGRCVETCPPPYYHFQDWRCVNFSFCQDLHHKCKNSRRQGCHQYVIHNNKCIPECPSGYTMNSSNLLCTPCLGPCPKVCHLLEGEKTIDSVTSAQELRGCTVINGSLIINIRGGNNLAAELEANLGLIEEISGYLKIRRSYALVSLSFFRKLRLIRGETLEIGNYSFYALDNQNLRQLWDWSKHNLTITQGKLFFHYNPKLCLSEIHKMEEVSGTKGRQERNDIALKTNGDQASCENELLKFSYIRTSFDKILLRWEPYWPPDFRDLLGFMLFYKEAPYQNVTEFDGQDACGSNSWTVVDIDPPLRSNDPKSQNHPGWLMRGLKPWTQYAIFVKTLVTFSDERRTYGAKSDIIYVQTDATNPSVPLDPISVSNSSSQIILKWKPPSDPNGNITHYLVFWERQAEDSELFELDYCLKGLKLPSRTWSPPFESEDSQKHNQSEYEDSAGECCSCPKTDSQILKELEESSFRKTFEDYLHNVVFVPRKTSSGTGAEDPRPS
Chain of Insulin receptor (P06213 763-1382 limits assumed): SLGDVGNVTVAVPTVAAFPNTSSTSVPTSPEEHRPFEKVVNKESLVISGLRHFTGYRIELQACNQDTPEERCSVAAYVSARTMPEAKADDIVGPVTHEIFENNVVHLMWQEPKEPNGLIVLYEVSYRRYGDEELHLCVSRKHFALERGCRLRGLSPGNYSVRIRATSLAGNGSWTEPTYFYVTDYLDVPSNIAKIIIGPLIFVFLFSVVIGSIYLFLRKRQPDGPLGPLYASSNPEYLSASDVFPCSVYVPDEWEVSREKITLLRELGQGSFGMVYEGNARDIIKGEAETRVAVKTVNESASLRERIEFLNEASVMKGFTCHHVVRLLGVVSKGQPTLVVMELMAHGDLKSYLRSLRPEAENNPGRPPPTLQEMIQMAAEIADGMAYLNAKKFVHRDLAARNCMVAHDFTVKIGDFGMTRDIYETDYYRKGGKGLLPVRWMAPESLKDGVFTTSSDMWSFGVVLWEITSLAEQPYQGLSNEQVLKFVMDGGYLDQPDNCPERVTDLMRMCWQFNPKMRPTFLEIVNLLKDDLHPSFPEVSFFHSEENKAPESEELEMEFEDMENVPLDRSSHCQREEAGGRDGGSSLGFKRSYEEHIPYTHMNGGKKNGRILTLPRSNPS

dTM [1]: 1 K
SMILES: CN(C(=O)c1cnn2cccnc12)c1cc2c(cc1N1CCOCC1)C(=O)N(C[C@@H](F)C(C)(C)O)C2

SMILES: CN(C)CCOc1ccc(-c2nc(-c3ccncc3)c(-c3ccc4c(c3)CC/C4=N\O)[nH]2)cc1
% of control [2]: 100%
% of control [3]: 88%

% of control [4]: 129%
SMILES: CC(=O)Nc1cccc(-n2c(=O)n(C3CC3)c(=O)c3c(Nc4ccc(I)cc4F)n(C)c(=O)c(C)c32)c1

SMILES: N#Cc1cccc(-c2c[nH]c3ncnc(N4CCOCC4)c23)c1
% of inhibition [5]: 31%

SMILES: Cc1cc([C@@H](C)Nc2ccccc2C(=O)O)c2nc(N3CCOCC3)cc(=O)n2c1 [AZD-6482]
% of control [6]: 100%

% of inhibition [7]: 2.3%
SMILES: CC[C@@H]1[C@H](F)C(=O)N[C@@H]1COc1nccc2cc(C(N)=O)c(OC)cc12 [ZIMLOVISERTIB]

SMILES: COc1cc(N(C)c2ccnc3ccc(C(F)(F)F)cc23)cc(OC)c1OC
% binding [8]: 81%

% of control ([9]; at 1 µM): 68%
% of control ([9]; at 5 µM): 31%
SMILES: C=CC(=O)Nc1cccc(C(=O)Nc2ccc(Nc3cc(-c4[nH]c(SC)nc4C)ccn3)cc2)c1

IC50 [10]: > 10 µM
SMILES: CCC(=O)N1CC[C@H](Nc2ncnc3c2CN(c2cnc(OC)c(C(F)(F)F)c2)CC3)C1 [LENIOLISIB]

% of inhibition [11]: -111%
SMILES: Cn1cc(-n2cnc3c(NCc4nc5cc(Cl)c(Cl)cc5[nH]4)nc(N4CCOCC4)nc32)cn1
